Source: publication PMC2289219 (The Journal of Cell Biology, 1991)

What was measured:
Bovine brain ECs = type: cell-based
cAMP levels = type: cell-based
BBB = test system: BBB; design: species or system rats; settings: rat, in vivo

OC[C@H]1O[C@@](CO)(O[C@H]2O[C@H](CO)[C@@H](O)[C@H](O)[C@H]2O)[C@@H](O)[C@@H]1O [sucrose]
Flux across low resistance monolayers (monolayers of brain ECs): much greater than that across high resistance monolayers

calcitonin gene-related peptide
Effect on electrical resistance (agents that elevate cAMP) (Bovine brain ECs): also effective

RO20-1724
Effect on electrical resistance (agents that elevate cAMP) (Bovine brain ECs): increases rapidly | Increase in cAMP levels (cAMP levels): two to threefold increase

8-(4-chlorophenylthio)-adenosine-3':5' mono- phosphate, cyclic [CPTcAMP]
Effect on electrical resistance (agents that elevate cAMP) (Bovine brain ECs): increases rapidly

CN[C@@H]1C[C@H]2O[C@@](C)([C@@H]1OC)n1c3ccccc3c3c4c(c5c6ccccc6n2c5c31)C(=O)NC4 [staurosporine]
Increase in ability of peripherally administered BSA to enter the brain (BBB): three to fivefold | Increase in ability of peripherally administered sucrose to enter the brain (BBB): three to fivefold

PDGF
Whether the factor accounts for the activity of astrocyte CM (Bovine brain ECs): could not be accounted for fully

C=C[C@@]1(C)CC(=O)[C@]2(O)[C@@]3(C)[C@@H](O)CCC(C)(C)[C@@H]3[C@H](O)[C@H](OC(C)=O)[C@@]2(C)O1 [forskolin]
Effect on electrical resistance (agents that elevate cAMP) (Bovine brain ECs): also effective | Increase in cAMP levels (cAMP levels): two to threefold increase

Atrial natriuretic factor
Effect on resistance (elevated cGMP) (Bovine brain ECs): simi- lar effects

IGF-1
Whether the factor accounts for the activity of astrocyte CM (Bovine brain ECs): could not be accounted for fully

O=S(=O)(NCCNCC=Cc1ccc(Br)cc1)c1cccc2cnccc12 [H-89, N-[2-(p-bromocinnamylamino)ethyl]-5-isoquinolinesulfonamide]
Effect of protein kinase inhibitors on resistance (Bovine brain ECs): decreased

CC(C)NCC(O)COc1cccc2ccccc12 (centres unmarked) [propranolol]
Flux across high resistance monolayers (monolayers of brain ECs; Fig. 7 top, about 300 nM labeled tracer, apical to basolateral, 37): moved rapidly
